From patent US20220380374A1, “1,4-DIHYDROBENZO[D]PYRAZOLO[3,4-F][1,3]DIAZEPINE DERIVATIVES AND RELATED COMPOUNDS AS LRRK2, NUAK1 AND/OR TYK2 KINASE MODULATORS FOR THE TREATMENT OF E.G. AUTOIMMUNE DISEASE” (Origenis GMBH, priority 2019, published 2022) come the findings set out here.

As usually defined, the IC50 is the concentration that gives 50% inhibition.

The target in assay [1] is T1, wt human TYK2, catalytic site (Homo sapiens, UniProt P29597).
T1 construct: 2 nM wt human TYK2, catalytic site (SignalChem/CAN); purchased SignalChem/CAN
T1 sequence (P29597 897-1176 limits assumed): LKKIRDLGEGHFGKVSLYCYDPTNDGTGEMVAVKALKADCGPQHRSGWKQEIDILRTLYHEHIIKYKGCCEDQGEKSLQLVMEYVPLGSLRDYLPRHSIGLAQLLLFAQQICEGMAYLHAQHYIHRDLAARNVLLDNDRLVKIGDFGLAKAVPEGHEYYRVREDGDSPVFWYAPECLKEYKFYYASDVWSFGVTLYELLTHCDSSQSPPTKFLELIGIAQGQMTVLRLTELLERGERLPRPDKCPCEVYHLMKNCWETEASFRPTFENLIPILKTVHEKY
The assay is described as follows: HTRF KinEASE assay, TYK2. The assay is classed as biochemical. The following applies: 1 μM ATP; read-out: IC50, inhibitory activity toward TYK2. In outline:
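2 nM wt human TYK2 catalytic domain with 1 μM biotinylated TK substrate and 1 μM ATP in 1× kinase buffer was incubated ≥30 min at room temperature. Antibody and streptavidin-XL665 were added, and HTRF emission ratios were read after 60 min.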

The target of assay [2] is T2, wt human NUAK1, full length (Homo sapiens, UniProt O60285).
T2 construct: 8 nM wt human NUAK1, full length (ThermoFisher/USA); purchased ThermoFisher/USA
T2 sequence (O60285 1-661): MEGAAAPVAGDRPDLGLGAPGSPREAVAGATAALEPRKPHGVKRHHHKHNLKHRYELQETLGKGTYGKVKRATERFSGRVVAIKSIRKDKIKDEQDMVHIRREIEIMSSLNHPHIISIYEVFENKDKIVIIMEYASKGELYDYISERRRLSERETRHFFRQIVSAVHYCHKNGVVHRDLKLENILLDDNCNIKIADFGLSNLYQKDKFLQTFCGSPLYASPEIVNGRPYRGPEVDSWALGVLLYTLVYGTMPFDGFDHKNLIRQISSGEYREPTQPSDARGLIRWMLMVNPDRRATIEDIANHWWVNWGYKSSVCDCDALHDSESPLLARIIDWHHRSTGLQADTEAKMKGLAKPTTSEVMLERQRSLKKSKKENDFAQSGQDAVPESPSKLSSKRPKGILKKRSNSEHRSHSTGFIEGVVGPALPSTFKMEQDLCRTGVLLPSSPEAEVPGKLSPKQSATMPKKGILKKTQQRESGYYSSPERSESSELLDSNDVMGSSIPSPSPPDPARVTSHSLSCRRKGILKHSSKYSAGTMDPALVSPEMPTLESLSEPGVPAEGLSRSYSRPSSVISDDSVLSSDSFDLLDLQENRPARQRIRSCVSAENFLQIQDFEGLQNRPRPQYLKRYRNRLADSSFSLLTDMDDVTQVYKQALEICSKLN
Kind of assay: TR-FRET LanthaScreen Eu Kinase Binding Assay, NUAK1. The note with it: 5 nM Kinase Tracer 236; read-out: IC50, inhibitory activity toward NUAK1. In a few lines: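 TR-FRET tracer-displacement binding with 8 nM full-length wild-type human NUAK1, 2 nM Eu-anti-His antibody and 5 nM Kinase Tracer 236 in 1× Kinase Buffer A (final). Compound, kinase/antibody and tracer incubated 1 h at room temperature; emission ratios analysed per kit protocol.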
(In TR-FRET formats the signal depends on donor and acceptor labels being close together.)

Regarding `Fc1cc2c(cc1OC1CCOCC1)N=C(c1c(Cl)cccc1Cl)Nc1c[nH]nc1-2` [Compound 222, 5-(2,6-dichlorophenyl)-9-fluoro-8-((tetrahydro-2H-pyran-4-yl)oxy)-2,4-dihydrobenzo[d]pyrazolo[3,4-f][1,3]diazepine], the results for the IC50 in assay [1] and in assay [2] were less than 10 nM and 100 to 1000 nM, respectively.

Take `Fc1cc2c(cc1OC1CCOCC1)N=C(c1c(F)cccc1C(F)(F)F)Nc1c[nH]nc1-2` [Compound 223, 9-fluoro-5-(2-fluoro-6-(trifluoromethyl)phenyl)-8-((tetrahydro-2H-pyran-4-yl)oxy)-2,4-dihydrobenzo[d]pyrazolo[3,4-f][1,3]diazepine]: the IC50 in assay [1] lay within 10 to 100 nM; in assay [2] it was 100 to 1000 nM.

With `Fc1cc2c(cc1-c1cccnn1)N=C(c1c(F)cccc1F)Nc1c[nH]nc1-2` [Compound 225, 5-(2,6-difluorophenyl)-9-fluoro-8-(pyridazin-3-yl)-2,4-dihydrobenzo[d]pyrazolo[3,4-f][1,3]diazepine], the IC50 in assay [1] and in assay [2] was 10 to 100 nM throughout.

Consider `Fc1cc2c(cc1-c1ccnnc1)N=C(c1c(F)cccc1F)Nc1c[nH]nc1-2` [Compound 226, 5-(2,6-difluorophenyl)-9-fluoro-8-(pyridazin-4-yl)-2,4-dihydrobenzo[d]pyrazolo[3,4-f][1,3]diazepine], for which the IC50 in assay [1] and in assay [2] was less than 10 nM in each case.

Turning to `Fc1cc2c(cc1-c1cccnn1)N=C(c1c(Cl)cccc1Cl)Nc1c[nH]nc1-2` [Compound 227, 5-(2,6-dichlorophenyl)-9-fluoro-8-(pyridazin-3-yl)-2,4-dihydrobenzo[d]pyrazolo[3,4-f][1,3]diazepine], the IC50 in assay [1] fell in the range of 10 to 100 nM; in assay [2] it was 100 to 1000 nM.

Regarding `Fc1cc2c(cc1-c1cccnn1)N=C(c1c(F)cccc1Cl)Nc1c[nH]nc1-2` [Compound 228, 5-(2-chloro-6-fluorophenyl)-9-fluoro-8-(pyridazin-3-yl)-2,4-dihydrobenzo[d]pyrazolo[3,4-f][1,3]diazepine], the IC50 in assay [1] was less than 10 nM; in assay [2], 10 to 100 nM.

With `Fc1cc2c(cc1-c1ccnnc1)N=C(c1c(Cl)cccc1Cl)Nc1c[nH]nc1-2` [Compound 229, 5-(2,6-dichlorophenyl)-9-fluoro-8-(pyridazin-4-yl)-2,4-dihydrobenzo[d]pyrazolo[3,4-f][1,3]diazepine], the IC50 in assay [1] was less than 10 nM; in assay [2], 100 to 1000 nM.

On to `Fc1cc2c(cc1-c1ccnnc1)N=C(c1c(F)cccc1Cl)Nc1c[nH]nc1-2` [Compound 230, 5-(2-chloro-6-fluorophenyl)-9-fluoro-8-(pyridazin-4-yl)-2,4-dihydrobenzo[d]pyrazolo[3,4-f][1,3]diazepine], for which the IC50 is less than 10 nM in assay [1] and 10 to 100 nM in assay [2].

Turning to `Fc1cc2c(cc1-c1ccccc1)N=C(c1c(F)cccc1F)Nc1c[nH]nc1-2` [Compound 231, 5-(2,6-difluorophenyl)-9-fluoro-8-phenyl-2,4-dihydrobenzo[d]pyrazolo[3,4-f][1,3]diazepine], the IC50 in assay [1] and in assay [2] was 10 to 100 nM each time.

On to `Fc1ccccc1-c1ccc2c(c1)N=C(c1c(F)cccc1F)Nc1c[nH]nc1-2` [Compound 233, 5-(2,6-difluorophenyl)-8-(2-fluorophenyl)-2,4-dihydrobenzo[d]pyrazolo[3,4-f][1,3]diazepine], for which the IC50 in assay [1] and in assay [2] was 10 to 100 nM in each case.

For `Fc1ccccc1-c1ccc2c(c1)N=C(c1c(F)cccc1Cl)Nc1c[nH]nc1-2` [Compound 234, 5-(2-chloro-6-fluorophenyl)-8-(2-fluorophenyl)-2,4-dihydrobenzo[d]pyrazolo[3,4-f][1,3]diazepine], the values for the IC50 in assay [1] and in assay [2] were 10 to 100 nM and less than 10 nM, respectively.

Take `CC(C)Oc1cc2c(cc1F)-c1n[nH]cc1N=C(c1c(F)cccc1Cl)N2` [Compound 235, 5-(2-chloro-6-fluorophenyl)-9-fluoro-8-isopropoxy-2,6-dihydrobenzo[d]pyrazolo[3,4-f][1,3]diazepine]: the IC50 in assay [1] and in assay [2] was 10 to 100 nM in each case.

Consider `Fc1ccccc1-c1ccc2c(c1)N=C(c1c(Cl)cccc1Cl)Nc1c[nH]nc1-2` [Compound 236, 5-(2,6-dichlorophenyl)-8-(2-fluorophenyl)-2,4-dihydrobenzo[d]pyrazolo[3,4-f][1,3]diazepine], for which the IC50 in assay [1] was less than 10 nM; in assay [2], 100 to 1000 nM.

Take `Fc1ccc(-c2ccc3c(c2)N=C(c2c(F)cccc2F)Nc2c[nH]nc2-3)cc1` [Compound 237, 5-(2,6-difluorophenyl)-8-(4-fluorophenyl)-2,4-dihydrobenzo[d]pyrazolo[3,4-f][1,3]diazepine]: the IC50 is 10 to 100 nM in assay [1] and less than 10 nM in assay [2].

Regarding `Fc1ccc(-c2ccc3c(c2)N=C(c2c(F)cccc2Cl)Nc2c[nH]nc2-3)cc1` [Compound 238, 5-(2-chloro-6-fluorophenyl)-8-(4-fluorophenyl)-2,4-dihydrobenzo[d]pyrazolo[3,4-f][1,3]diazepine], the IC50 in assay [1] and in assay [2] was 10 to 100 nM throughout.

Turning to `CCC(C)Oc1cc2c(cc1F)-c1n[nH]cc1N=C(c1c(F)cccc1Cl)N2` (centres unmarked) [Compound 239, 8-(sec-butoxy)-5-(2-chloro-6-fluorophenyl)-9-fluoro-2,6-dihydrobenzo[d]pyrazolo[3,4-f][1,3]diazepine], the results for the IC50 in assay [1] and in assay [2] were 10 to 100 nM and 100 to 1000 nM, respectively.

As for `Fc1cccc(-c2ccc3c(c2)N=C(c2c(F)cccc2F)Nc2c[nH]nc2-3)c1` [Compound 240, 5-(2,6-difluorophenyl)-8-(3-fluorophenyl)-2,4-dihydrobenzo[d]pyrazolo[3,4-f][1,3]diazepine], the IC50 in assay [1] and in assay [2] was 10 to 100 nM in each case.

In the case of `Fc1cccc(-c2ccc3c(c2)N=C(c2c(F)cccc2Cl)Nc2c[nH]nc2-3)c1` [Compound 241, 5-(2-chloro-6-fluorophenyl)-8-(3-fluorophenyl)-2,4-dihydrobenzo[d]pyrazolo[3,4-f][1,3]diazepine], the IC50 in assay [1] was less than 10 nM; in assay [2], 10 to 100 nM.

`Fc1ccc(-c2ccc3c(c2)N=C(c2c(Cl)cccc2Cl)Nc2c[nH]nc2-3)cc1` [Compound 242, 5-(2,6-dichlorophenyl)-8-(4-fluorophenyl)-2,4-dihydrobenzo[d]pyrazolo[3,4-f][1,3]diazepine]: the results for the IC50 in assay [1] and in assay [2] were less than 10 nM and 10 to 100 nM, respectively.

Take `Fc1cccc(-c2ccc3c(c2)N=C(c2c(Cl)cccc2Cl)Nc2c[nH]nc2-3)c1` [Compound 243, 5-(2,6-dichlorophenyl)-8-(3-fluorophenyl)-2,4-dihydrobenzo[d]pyrazolo[3,4-f][1,3]diazepine]: the IC50 lay within 10 to 100 nM in assay [1] and 100 to 1000 nM in assay [2].

Take `Fc1cc2c(cc1OC1CCCC1)N=C(c1c(F)cccc1Cl)Nc1c[nH]nc1-2` [Compound 245, 5-(2-chloro-6-fluorophenyl)-8-(cyclopentyloxy)-9-fluoro-2,4-dihydrobenzo[d]pyrazolo[3,4-f][1,3]diazepine]: the IC50 was in the range of 10 to 100 nM in assay [1] and 100 to 1000 nM in assay [2].

For `CC[C@H](C)Oc1cc2c(cc1F)-c1n[nH]cc1N=C(c1c(F)cccc1Cl)N2` [Compound 247, (S)-8-(sec-butoxy)-5-(2-chloro-6-fluorophenyl)-9-fluoro-2,6-dihydrobenzo[d]pyrazolo[3,4-f][1,3]diazepine], the IC50 in assay [1] and in assay [2] was 10 to 100 nM each time.
